Reference: patent US9556229B2, “Modification of peptides using a bis(thioether)arylbridge approach” (priority 2012, dated 2017)
Where two headings read alike, the source gives them in different places. Starred links: 1 amine or outer side, 2 acyl side, 3 side chain; linkers in the order of their positions; H or OH if unused. Positions of bridges follow the written chain, without caps; N, C: chain ends. Non-standard residues stand in square brackets, D forms with d. Residues, ends and D or L forms follow the SMILES beside them. ξ: configuration not given here. *: point of attachment. X2 = Cc1cn([C@H]2C[C@H](n3cc(CCCC(=O)*)nn3)[C@@H](CO)O2)c(=O)[nH]c1=O; DAMPA = CN(Cc1cnc2nc(N)nc(N)c2n1)c1ccc(C(=O)*)cc1; Phe(F5) = N[C@@H](Cc1c(F)c(F)c(F)c(F)c1F)C(=O)O; Pro(4R-Bn) = O=C(O)[C@@H]1C[C@@H](Cc2ccccc2)CN1; Chlorambucil = O=C(CCCc1ccc(N(CCCl)CCCl)cc1)*; γGlu = O=C(O)[C@H](CCC(=O)[*:2])N[*:1]; 1Nal = N[C@@H](Cc1cccc2ccccc12)C(=O)O; 2Nal = N[C@@H](Cc1ccc2ccccc2c1)C(=O)O; mXylylene = c1cc(C[*:1])cc(C[*:2])c1; oXylylene = c1ccc(C[*:2])c(C[*:1])c1; Cha = N[C@@H](CC1CCCCC1)C(=O)O; Cysteamide = C(CS[*:3])N[*:1]; Tle = CC(C)(C)[C@H](N)C(=O)O; Nicotinoyl = O=C(c1cccnc1)*; ξDisc = O=C(O)C1NCc2ccccc21; N(CH2CH2)2NH = C1CN(*)CCN1; NMeA = CN[C@@H](C)C(=O)O; Ahx = NCCCCCC(=O)O

Legend:
[1] = test system: HCT116 colorectal cancer cells
[2] = test system: MDA-MB-231 breast cancer cell line
[3] = test system: MCF-7 breast cancer cell line; assay: Cell viability, MCF-7, PrestoBlue assay; assay type: cell-based; conditions: NA = not active
Description: To test our theory we decided to focus on Smac multimers. First, we synthesized a small library of Smac compounds (see, Tables 3 and 4) varying in position 4 substituents having general structure N-MeAla-Tle-4-(trans-Bn)-Pro-Xaa-NHCH2CH2—SH (SEQ ID NO:38), which were tested in vitro using MDA-MB-231 and MCF-7 breast cancer cell lines and PrestoBlue™ assay (Invitrogen).

Structure (SMILES) | EC50 [1] [µM] | also measured
Cc1cn([C@H]2C[C@H](n3cc(CCCC(=O)N[C@H](CCCNC(=N)N)C(=O)N[C@@H](CCCNC(=N)N)C(=O)N[C@@H](Cc4c(F)c(F)c(F)c(F)c4F)C(=O)N[C@@H](CCCNC(=N)N)C(=O)N[C@@H]4CSCc5ccccc5CSC[C@@H](C(=O)N[C@H](CCCNC(=N)N)C(=O)N[C@@H](CC5CCCCC5)C(=O)N[C@@H](CCCNC(=N)N)C(=O)N5Cc6ccccc6C5C(N)=O)NC(=O)[C@H](Cc5cccc6ccccc56)NC(=O)[C@H](Cc5ccc(O)cc5)NC4=O)nn3)[C@@H](CO)O2)c(=O)[nH]c1=O (stereo partly drawn) [ArB14Co-AZT, AZT-Arg-Arg-PhF-Arg-Cys-Tyr-Na1-Cys-Arg-Cha-Arg-DISC] (X2-[dR]R[Phe(F5)]R[dC]Y[1Nal]C[dR][Cha]R[ξDisc]-NH2; linker 5-8 via oXylylene; N-terminus assumed) | 30.2 ± 2.5 | –
N=C(N)NCCC[C@H](NC(=O)[C@H](Cc1c(F)c(F)c(F)c(F)c1F)NC(=O)[C@H](CCCNC(=N)N)NC(=O)[C@@H](CCCNC(=N)N)NC(=O)CCCCCNC(=O)CCCc1ccc(N(CCCl)CCCl)cc1)C(=O)N[C@@H]1CSCc2ccccc2CSC[C@@H](C(=O)N[C@H](CCCNC(=N)N)C(=O)N[C@@H](CC2CCCCC2)C(=O)N[C@@H](CCCNC(=N)N)C(=O)N2Cc3ccccc3C2C(N)=O)NC(=O)[C@H](Cc2cccc3ccccc23)NC(=O)[C@H](Cc2ccc(O)cc2)NC1=O (stereo partly drawn) [ArB14Co-CLB, CLB-Ahx-Arg-Arg-PhF-Arg-Cys-Tyr-Na1-Cys-Arg-Cha-Arg-DISC] ({Chlorambucil-Ahx}-[dR]R[Phe(F5)]R[dC]Y[1Nal]C[dR][Cha]R[ξDisc]-NH2; linker 5-8 via oXylylene) | 7.5 ± 1.1 | –
CN(Cc1cnc2nc(N)nc(N)c2n1)c1ccc(C(=O)N[C@@H](CCC(=O)NCCCCCC(=O)N[C@H](CCCNC(=N)N)C(=O)N[C@@H](CCCNC(=N)N)C(=O)N[C@@H](Cc2c(F)c(F)c(F)c(F)c2F)C(=O)N[C@@H](CCCNC(=N)N)C(=O)N[C@@H]2CSCc3ccccc3CSC[C@@H](C(=O)N[C@H](CCCNC(=N)N)C(=O)N[C@@H](CC3CCCCC3)C(=O)N[C@@H](CCCNC(=N)N)C(=O)N3Cc4ccccc4C3C(N)=O)NC(=O)[C@H](Cc3cccc4ccccc34)NC(=O)[C@H](Cc3ccc(O)cc3)NC2=O)C(=O)O)cc1 (stereo partly drawn) [ArB14Co-MTX, MTX-Ahx-Arg-Arg-PhF-Arg-Cys-Tyr-Na1-Cys-Arg-Cha-Arg-DISC] ({DAMPA-γGlu-Ahx}-[dR]R[Phe(F5)]R[dC]Y[1Nal]C[dR][Cha]R[ξDisc]-NH2; linker 5-8 via oXylylene) | 6.9 ± 0.4 | –
CC(C)C[C@H](NC(=O)[C@H]1CSCc2ccc(cc2)CSC[C@@H](NC(=O)[C@H](C)NC(=O)[C@H](Cc2ccccc2)NC(=O)[C@H](CO)NC(=O)[C@@H](N)[C@@H](C)O)C(=O)N[C@@H](Cc2ccc(O)cc2)C(=O)N[C@@H](Cc2c[nH]c3ccccc23)C(=O)NCC(=O)N1)C(=O)N[C@@H](CO)C(=O)N1CCC[C@H]1C(N)=O [ArB15Cp] | > 250 | –
CC(C)C[C@H](NC(=O)[C@H]1CSCc2cccc(c2)Cc2cccc(c2)CSC[C@H](NC(=O)[C@H](C)NC(=O)[C@H](Cc2ccccc2)NC(=O)[C@H](CO)NC(=O)[C@@H](N)[C@@H](C)O)C(=O)N[C@@H](Cc2ccc(O)cc2)C(=O)N[C@@H](Cc2c[nH]c3ccccc23)C(=O)NCC(=O)N1)C(=O)N[C@@H](CO)C(=O)N1CCC[C@H]1C(N)=O [ArB15Eb] | – | EC50 ([1]; read-out: EC50 [μM] HCT-116, HCT116 colorectal cancer cells, PrestoBlue assay, NA = not active): 163 µM
CC(C)C[C@H](NC(=O)[C@H](CCCNC(=N)N)NC(=O)[C@H](CS)NC(=O)[C@H](Cc1c[nH]c2ccccc12)NC(=O)[C@H](Cc1ccc(O)cc1)NC(=O)[C@H](CCCNC(=N)N)NC(=O)[C@H](CS)NC(=O)[C@H](Cc1ccccc1)NC(=O)[C@@H](N)CCCNC(=N)N)C(=O)N[C@@H](CCCNC(=N)N)C(=O)N1CCC[C@H]1C(N)=O [ArB15F/Gr] (H-RFCRYWCRLRP-NH2; N-terminus assumed) | > 250 | –
CN[C@@H](C)C(=O)N[C@H](C(=O)N1C[C@H](Cc2ccccc2)C[C@H]1C(=O)N[C@@H](Cc1c[nH]c2ccccc12)C(=O)NCCS)C(C)(C)C [SMAC19, N^MeAla-Tle-(4-Bzl)Pro-Trp-NHCH2CH2SH] (H-[NMeA][Tle][Pro(4R-Bn)]W-Cysteamide; N-terminus assumed) | – | EC50 [2]: 36.7 ± 3.2 µM; EC50 [3]: 27.6 ± 1.8 µM

The remaining compounds from weak to strong by EC50 [1], led by results:

EC50 [1] [µM] | Structure (SMILES) | also measured
249 | CC(C)C[C@H](NC(=O)[C@@H](C)NC(=O)[C@@H]1CSCc2ccccc2CSC[C@@H](NC(=O)[C@H](C)NC(=O)[C@H](Cc2ccccc2)NC(=O)[C@H](CO)NC(=O)[C@@H](N)[C@@H](C)O)C(=O)N[C@@H](Cc2ccc(O)cc2)C(=O)N[C@@H](Cc2c[nH]c3ccccc23)C(=O)N1)C(=O)N[C@@H](CO)C(=O)N1CCC[C@H]1C(N)=O [ArB14o] | –
189 | CC(C)C[C@H](NC(=O)[C@H](CCCNC(=N)N)NC(=O)[C@@H]1CSCc2ccccc2CSC[C@H](NC(=O)[C@H](Cc2ccccc2)NC(=O)[C@H](CCCNC(=N)N)NC(=O)c2cccnc2)C(=O)N[C@@H](CCCNC(=N)N)C(=O)N[C@@H](Cc2ccc(O)cc2)C(=O)N[C@@H](Cc2c[nH]c3ccccc23)C(=O)N1)C(=O)N[C@@H](CCCNC(=N)N)C(=O)N1CCC[C@H]1C(N)=O [ArB15FNico] (Nicotinoyl-RFCRYWCRLRP-NH2; linker 3-7 via oXylylene) | –
142 | C[C@@H](O)[C@H](N)C(=O)N[C@@H](CO)C(=O)N[C@@H](Cc1ccccc1)C(=O)N[C@@H](CCCNC(=N)N)C(=O)N[C@@H](CCCNC(=N)N)C(=O)N[C@@H](Cc1ccc(O)cc1)C(=O)N[C@H]1CS(=O)(=O)Cc2cccc(c2)CS(=O)(=O)C[C@@H](C(=O)N[C@@H](CO)C(=O)N2CCC[C@H]2C(N)=O)NC(=O)[C@H](CCCNC(=N)N)NC(=O)[C@H](CCCNC(=N)N)NC1=O [ArB14Dmx] | –
126 | CC(C)C[C@H](NC(=O)[C@H](CCCNC(=N)N)NC(=O)[C@@H]1CSCc2cccc(c2)CSC[C@H](NC(=O)[C@H](Cc2ccccc2)NC(=O)[C@H](CCCNC(=N)N)NC(=O)c2cccnc2)C(=O)N[C@@H](CCCNC(=N)N)C(=O)N[C@@H](Cc2ccc(O)cc2)C(=O)N[C@@H](Cc2c[nH]c3ccccc23)C(=O)N1)C(=O)N[C@@H](CCCNC(=N)N)C(=O)N1CCC[C@H]1C(N)=O [ArB15GNicm] (Nicotinoyl-RFCRYWCRLRP-NH2; linker 3-7 via mXylylene) | –
118 | C[C@@H](O)[C@H](N)C(=O)N[C@@H](CO)C(=O)N[C@@H](Cc1ccccc1)C(=O)N[C@@H](CCCNC(=N)N)C(=O)N[C@@H](CCCNC(=N)N)C(=O)N[C@@H](Cc1ccc(O)cc1)C(=O)N[C@H]1CSCc2cccc(c2)CSC[C@@H](C(=O)N[C@@H](CO)C(=O)N2CCC[C@H]2C(N)=O)NC(=O)[C@H](CCCNC(=N)N)NC(=O)[C@H](CCCNC(=N)N)NC1=O [ArB14Dm] | –
83.3 | C[C@H](NC(=O)[C@H](Cc1c(F)c(F)c(F)c(F)c1F)NC(=O)[C@H](CO)NC(=O)[C@@H](N)[C@@H](C)O)C(=O)N[C@@H]1CSCc2ccccc2CSC[C@@H](C(=O)N[C@H](C)C(=O)N[C@@H](CC2CCCCC2)C(=O)N[C@@H](CO)C(=O)N2CCNCC2)NC(=O)[C@H](Cc2cccc3ccccc23)NC(=O)[C@H](Cc2ccc(O)cc2)NC1=O [ArB14Ao, Thr-Ser-PhF-Ala-Cys-Tyr-Na1-Cys-Ala-Cha-Ser-Pipz] (H-TS[Phe(F5)]A[dC]Y[1Nal]C[dA][Cha]S-{N(CH2CH2)2NH}; linker 5-8 via oXylylene; N-terminus assumed) | –
64.5 | CC(C)C[C@H](NC(=O)[C@H](CCCNC(=N)N)NC(=O)[C@H](CS)NC(=O)[C@H](Cc1c[nH]c2ccccc12)NC(=O)[C@H](Cc1ccc(O)cc1)NC(=O)[C@H](CCCNC(=N)N)NC(=O)[C@H](CS)NC(=O)[C@H](Cc1ccccc1)NC(=O)[C@H](CCCNC(=N)N)NC(=O)c1cccnc1)C(=O)N[C@@H](CCCNC(=N)N)C(=O)N1CCC[C@H]1C(N)=O [ArB15F/GNicr] (Nicotinoyl-RFCRYWCRLRP-NH2) | –
52.2 | CC(C)C[C@H](NC(=O)[C@H](CCCNC(=N)N)NC(=O)[C@@H]1CSCc2cccc(c2)CSC[C@H](NC(=O)[C@H](Cc2ccccc2)NC(=O)[C@@H](N)CCCNC(=N)N)C(=O)N[C@@H](CCCNC(=N)N)C(=O)N[C@@H](Cc2ccc(O)cc2)C(=O)N[C@@H](Cc2c[nH]c3ccccc23)C(=O)N1)C(=O)N[C@@H](CCCNC(=N)N)C(=O)N1CCC[C@H]1C(N)=O [ArB15Gm] (H-RFCRYWCRLRP-NH2; linker 3-7 via mXylylene; N-terminus assumed) | –
49.6 | CC(C)C[C@H](NC(=O)[C@H](CCCNC(=N)N)NC(=O)[C@@H]1CSCc2ccccc2CSC[C@H](NC(=O)[C@H](Cc2ccccc2)NC(=O)[C@@H](N)CCCNC(=N)N)C(=O)N[C@@H](CCCNC(=N)N)C(=O)N[C@@H](Cc2ccc(O)cc2)C(=O)N[C@@H](Cc2c[nH]c3ccccc23)C(=O)N1)C(=O)N[C@@H](CCCNC(=N)N)C(=O)N1CCC[C@H]1C(N)=O [ArB15Fo] (H-RFCRYWCRLRP-NH2; linker 3-7 via oXylylene; N-terminus assumed) | –
10.7 ± 0.7 | N=C(N)NCCC[C@@H](N)C(=O)N[C@@H](CCCNC(=N)N)C(=O)N[C@@H](Cc1ccc2ccccc2c1)C(=O)N[C@@H](CCCNC(=N)N)C(=O)N[C@@H]1CSCc2ccccc2CSC[C@@H](C(=O)N[C@H](CCCNC(=N)N)C(=O)N[C@@H](CC2CCCCC2)C(=O)N[C@@H](CCCNC(=N)N)C(=O)N2Cc3ccccc3C2C(N)=O)NC(=O)[C@H](Cc2cccc3ccccc23)NC(=O)[C@H](Cc2ccc(O)cc2)NC1=O (stereo partly drawn) [ArB14Bo, Arg-Arg-Na2-Arg-Cys-Tyr-Na1-Cys-Arg-Cha-Arg-DISC] (H-[dR]R[2Nal]R[dC]Y[1Nal]C[dR][Cha]R[ξDisc]-NH2; linker 5-8 via oXylylene; N-terminus assumed) | –
